The values that follow come from ChEMBL document CHEMBL3112553, “Synthesis and biological evaluation of novel C6-amino substituted 4-azasteroidal purine nucleoside analogues” (Bioorg Med Chem Lett, 2014).

Type in all cases: functional, cell-based
One assay deals with PC-3. As to the kind of experiment: Antiproliferative activity against human PC3 cells by MTT assay. (Tetrazolium dyes change colour on reduction, which living cells bring about.)
The next assay deals with MCF7. As to the kind of experiment: Antiproliferative activity against human MCF7 cells by MTT assay.
A further assay has as its system HeLa. As to the kind of experiment: Antiproliferative activity against human HeLa cells by MTT assay.

`COc1ccc(CNc2nc(Cl)nc3c2ncn3[C@@H]2CC[C@H]3[C@@H]4CC[C@H]5NC(=O)CC[C@]5(C)[C@H]4CC[C@]3(C)O2)cc1`: the IC50 (in general, the point on the concentration scale where inhibition reaches its midpoint) in the assay on PC-3 is > 100 µM; in the assay with MCF7, > 100 µM; with HeLa, 10.1 µM.
With `COc1ccc(CNc2ncnc3c2ncn3[C@@H]2CC[C@H]3[C@@H]4CC[C@H]5NC(=O)CC[C@]5(C)[C@H]4CC[C@]3(C)O2)cc1`, the IC50 with PC-3 is > 100 µM; with MCF7, 60.3 µM; with HeLa it was 38.7 µM.
The corresponding values for `C[C@]12CCC(=O)N[C@@H]1CC[C@@H]1[C@@H]2CC[C@]2(C)O[C@H](n3cnc4c(NCCN)nc(Cl)nc43)CC[C@@H]12` are 63.4 µM, 70.3 µM and 22.7 µM.
Turning to `C[C@]12CCC(=O)N[C@@H]1CC[C@@H]1[C@@H]2CC[C@]2(C)O[C@H](n3cnc4c(NCc5ccc(F)cc5)nc(Cl)nc43)CC[C@@H]12`, the results for the IC50 in the assay with PC-3, in the assay on MCF7 and in the assay on HeLa were > 100 µM, 13.5 µM and 59.1 µM, respectively.
As for `Cc1ccc(CNc2ncnc3c2ncn3[C@@H]2CC[C@H]3[C@@H]4CC[C@H]5NC(=O)CC[C@]5(C)[C@H]4CC[C@]3(C)O2)cc1`, the values for the IC50 with PC-3, in the assay with MCF7 and with HeLa were 44.2 µM, 32.7 µM and 28.2 µM, respectively.
The corresponding values for `C[C@]12CCC(=O)N[C@@H]1CC[C@@H]1[C@@H]2CC[C@]2(C)O[C@H](n3cnc4c(N(CCO)CCO)ncnc43)CC[C@@H]12` are > 100 µM, > 100 µM and > 100 µM.
As for `C[C@]12CCC(=O)N[C@@H]1CC[C@@H]1[C@@H]2CC[C@]2(C)O[C@H](n3cnc4c(NCc5ccc(F)cc5)ncnc43)CC[C@@H]12`, the IC50 was 91.5 µM in the assay with PC-3, 34.8 µM in the assay on MCF7 and > 100 µM with HeLa.
For the compound `CC(CO)Nc1ncnc2c1ncn2[C@@H]1CC[C@H]2[C@@H]3CC[C@H]4NC(=O)CC[C@]4(C)[C@H]3CC[C@]2(C)O1` (stereo partly specified), the values for the IC50 in the assay with PC-3, in the assay on MCF7 and in the assay on HeLa were 15.8 µM, > 100 µM and > 100 µM, respectively.
Consider `C[C@]12CCC(=O)N[C@@H]1CC[C@@H]1[C@@H]2CC[C@]2(C)O[C@H](n3cnc4c(NN)ncnc43)CC[C@@H]12`, for which the figures for the IC50 in the assay with PC-3, in the assay on MCF7 and in the assay with HeLa were 87.2 µM, 34.6 µM and > 100 µM, respectively.
As for `C[C@]12CCC(=O)N[C@@H]1CC[C@@H]1[C@@H]2CC[C@]2(C)O[C@H](n3cnc4c(NCCO)nc(Cl)nc43)CC[C@@H]12`, the IC50 with PC-3, with MCF7 and with HeLa was > 100 µM throughout.
With `CCN(CC)c1nc(Cl)nc2c1ncn2[C@@H]1CC[C@H]2[C@@H]3CC[C@H]4NC(=O)CC[C@]4(C)[C@H]3CC[C@]2(C)O1`, the IC50 in the assay on PC-3 stood at 58.1 µM; in the assay on MCF7, 16.4 µM; in the assay on HeLa it was 31.1 µM.
Turning to `CCN(CC)c1ncnc2c1ncn2[C@@H]1CC[C@H]2[C@@H]3CC[C@H]4NC(=O)CC[C@]4(C)[C@H]3CC[C@]2(C)O1`, the values for the IC50 with PC-3, in the assay on MCF7 and in the assay with HeLa were > 100 µM, > 100 µM and 33.8 µM, respectively.
For the compound `C[C@]12CCC(=O)N[C@@H]1CC[C@@H]1[C@@H]2CC[C@]2(C)O[C@H](n3cnc4c(NCCO)ncnc43)CC[C@@H]12`, the results for the IC50 with PC-3, in the assay with MCF7 and in the assay on HeLa were 49.2 µM, > 100 µM and > 100 µM, respectively.
As for `C[C@]12CCC(=O)N[C@@H]1CC[C@@H]1[C@@H]2CC[C@]2(C)O[C@H](n3cnc4c(NCc5ccccc5)nc(Cl)nc43)CC[C@@H]12`, the IC50 in the assay on PC-3 worked out at 17.9 µM; in the assay with MCF7, 12.8 µM; in the assay with HeLa, 2.69 µM.
For `C[C@]12CCC(=O)N[C@@H]1CC[C@@H]1[C@@H]2CC[C@]2(C)O[C@H](n3cnc4c(NCCN)ncnc43)CC[C@@H]12`, the IC50 in the assay with PC-3 is > 100 µM; in the assay on MCF7, > 100 µM; with HeLa it was 66.2 µM.
For the compound `C[C@]12CCC(=O)N[C@@H]1CC[C@@H]1[C@@H]2CC[C@]2(C)O[C@H](n3cnc4c(NCc5ccccc5)ncnc43)CC[C@@H]12`, the IC50 was 20.6 µM with PC-3, > 100 µM in the assay on MCF7 and > 100 µM in the assay with HeLa.
For `C[C@]12CCC(=O)N[C@@H]1CC[C@@H]1[C@@H]2CC[C@]2(C)O[C@H](n3cnc4c(N(CCO)CCO)nc(Cl)nc43)CC[C@@H]12`, the IC50 in the assay on PC-3, with MCF7 and in the assay with HeLa was > 100 µM throughout.
With `CN(C)c1nc(Cl)nc2c1ncn2[C@@H]1CC[C@H]2[C@@H]3CC[C@H]4NC(=O)CC[C@]4(C)[C@H]3CC[C@]2(C)O1`, the IC50 was > 100 µM in the assay with PC-3, > 100 µM in the assay on MCF7 and 61.3 µM in the assay with HeLa.
For the compound `C[C@]12CCC(=O)N[C@@H]1CC[C@@H]1[C@@H]2CC[C@]2(C)O[C@H](n3cnc4c(NN)nc(Cl)nc43)CC[C@@H]12`, the IC50 was 2.99 µM in the assay on PC-3, > 100 µM in the assay on MCF7 and > 100 µM in the assay on HeLa.
Regarding `CN(C)c1ncnc2c1ncn2[C@@H]1CC[C@H]2[C@@H]3CC[C@H]4NC(=O)CC[C@]4(C)[C@H]3CC[C@]2(C)O1`, the figures for the IC50 in the assay on PC-3, in the assay with MCF7 and in the assay on HeLa were > 100 µM, 57.7 µM and 70.5 µM, respectively.
In the case of `CC(CO)Nc1nc(Cl)nc2c1ncn2[C@@H]1CC[C@H]2[C@@H]3CC[C@H]4NC(=O)CC[C@]4(C)[C@H]3CC[C@]2(C)O1` (stereo partly specified), the IC50 in the assay with PC-3 is 2.84 µM; in the assay with MCF7, > 100 µM; with HeLa, > 100 µM.
As to `Cc1ccc(CNc2nc(Cl)nc3c2ncn3[C@@H]2CC[C@H]3[C@@H]4CC[C@H]5NC(=O)CC[C@]5(C)[C@H]4CC[C@]3(C)O2)cc1`, the IC50 was 26.6 µM with PC-3, 12.9 µM in the assay with MCF7 and 67.2 µM in the assay on HeLa.
